Experimental data reported in patent US6353120B2, “Process for the preparation of a paclitaxel C-4 methyl carbonate analog” (Bristol-Myers Squibb Company, priority 1999, dated 2002).

Key:
[1] = system: L2987 human lung carcinoma xenograft; assay: distal site tumor model, L2987 human lung carcinoma xenograft; assay type: in vivo
[2] = system: M109 murine lung carcinoma; assay: distal site tumor model, M109 murine lung carcinoma; assay type: in vivo
[3] = system: HCT/pk human colon carcinoma xenograft (multidrug resistant tumor model); assay: distal site tumor model, HCT/pk human colon carcinoma xenograft; assay type: in vivo
[4] = system: tubulin; assay: tubulin polymerization assay; assay type: biochemical
[5] = system: HOC79, a clinically derived Taxol unresponsive ovarian carcinoma xenograft; assay: distal site tumor model, HOC79 ovarian carcinoma xenograft; assay type: in vivo

Substance: C-4 methylcarbonate analog of paclitaxel [Compound I]
- antitumor activity compared with paclitaxel [1]: superior to paclitaxel
- antitumor activity compared with paclitaxel [2]: superior to paclitaxel
- antitumor activity compared with paclitaxel [3]: superior to paclitaxel
- potency in tubulin polymerization relative to paclitaxel [4]: about twice as potent as paclitaxel
- antitumor activity compared with paclitaxel [5]: superior to paclitaxel
